Key:
[1] = target: T1, Aβ1-40 (Homo sapiens, UniProt P05067); assay: “Seeded” Thioflavin T aggregation assay for Aβ1-40; assay type: biochemical; details: HFIP pretreatment omitted
T1 construct: Aβ^1-40 (AnaSpec, San Jose, Calif., lots 14212, 34862 and 34889); purchased AnaSpec, San Jose, Calif
Text: The same procedure as described in Thioflavin T Aggregation Assay was used for “seeded” ThT aggregarion assay for Aβ^1-40 but the HFIP pretreatment was omitted. The presence of small Aβ^1-40 aggregates in the untreated batches caused aggregation to begin immediately rather than after a 12-24 hr. lag period.

[2] = target: T1, Aβ1-40; assay: Circular dichroism studies of Aβ1-40; assay type: biochemical; details: 40 μM Aβ1-40, 200 μM compound, pH 7.4, 37° C.
Description: Aliquots (220 μL) of pretreated Aβ^1-40 (40 μM in 20 mM Tris-HCl, pH 7.4) were added directly to 1 mm quartz circular dichroism (CD) cells, followed by 2.2 μL compound (of varying concentration) in methanol or methanol alone (controls). Solutions were incubated at 37° C. for up to 6 days. CD scans were performed on a J-810 spectropolarimeter (obtained from Jasco Corporation, Tokyo, Japan) between 190 and 250 nm, with a resolution of 0.1 nm and bandwidth of 1 nm. Ten scans were obtained for each reading. Spectra had background CD of the buffer subtracted and were left unsmoothed. Readings were performed at 37° C.
FIG. 6 depicts circular dichroism (CD) of Aβ^1-40 alone (A) and in the presence of 0j (B) and morin (C). Conditions: 40 μM Aβ^1-40, 200 μM compound (B,C), pH 7.4, Tris-HCl (20 mM), 1% MeOH. Prior to experiment, Aβ^1-40 pretreated with 1,1,1,3,3,3-hexafluoroisopropanol (HFIP).

[3] = target: T1, Aβ1-40; assay: 1H NMR binding of bi-aromatics to Aβ1-40; details: 100 μM Aβ1-40, 50 μM compound, D2O, 27° C.
Description: Aβ^1-40 was dissolved in HFIP (1 mL) and sonicated (20 min) to disassemble any pre-formed aggregates. The HFIP was removed with a stream of Ar(g) and the waxy residue dissolved in 2.2 mL buffer (Tris-d11, 20 mM in D2O). Incubations (0.500 mL) were made directly in thin-walled NMR tubes, to which were added compound (2.5 μL, 10 mM in DMSO-d6) or vehicle. An identical incubation lacking Aβ^1-40 was used as compound reference. Spectra were obtained for Aβ^1-40 alone (100 μM), compound alone (50 μM) and for a mixture of both (100 μM Aβ^1-40, 50 μM compound). Spectra were recorded at 500 MHz and 27° C. (300K), with 674 scans obtained for each.
FIG. 9 depicts ^1H NMR spectra identifying binding of 5-bromo-5′-carboxy-3,3′-bis-indolyl (0c) to Aβ^1-40. Spectra were obtained for Aβ^1-40 alone (100 μM, A), compound alone (50 μM, C) and for a mixture of both (100 μM Aβ^1-40, 50 μM compound, B). Spectra were recorded at 500 MHz and 27° C. (300K) in D2O containing 1% DMSO-d6, and 674 scans were obtained for each.

T1 sequence (P05067 672-711 limits assumed): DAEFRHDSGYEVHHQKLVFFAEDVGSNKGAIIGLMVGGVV

inhibition of Aβ1-40 aggregation in “seeded” ThT assay [1]: inhibition
random coil (RC)→β-sheet transition of Aβ1-40 by circular dichroism [2]: this transition was inhibited
binding to Aβ1-40 by 1H NMR (signal broadening) [3]: binding
SMILES: O=C(O)c1ccc2[nH]cc(-c3c[nH]c4ccc(Br)cc34)c2c1 [0c, 3-(5-bromo-indol-3-yl)-indole-5-carboxylic Acid]

— patent US20070015813A1, “Treatment of protein folding disorders” (QUEEN'S UNIVERSITY AT KINGSTON, priority 2005, published 2007)
